Laboratory results from US20100093973A1, “POLY(AMINO ACID) COMPOUND HAVING INHIBITORY ACTIVITY ON ABSORPTION OF PHOSPHORUS AND PHOSPHORUS ABSORPTION INHIBITOR” (priority 2007, published 2010).
Counter-ions that a name gives are not always drawn.

Test system: not listed separately
Experiment: in vitro
Format: cell-based
Details: not given
Method: MDCK Cells were inoculated into wells of a 96-well plate filled with D-MEM/F12 culture medium (available from GIBCO Company) supplemented with 10% FBS (available from TISSUE CULTURE BIOLOGICALS Company). After the cultivation of the cells for 3 days in a CO2 incubator, the culture medium was removed, a culture medium, in which each candidate substance (synthesized compound) had been dissolved, was added, followed by the cultivation for one day. To each well, there was added 10 μL of Cell Count Reagent SF (available from NAKARAI TESUKU K.K.), followed by the cultivation thereof for 2 hours and the subsequent determination of the absorbance observed at a wavelength of 460 nm. The IC50 values each were calculated on the basis of these measured values.

For `NCCCC[C@H](N)C(=O)NCCCC[C@H](NC(=O)[C@@H](N)CCCCN)C(=O)NCCCNCCCCNCCCNC(=O)[C@H](CCCCNC(=O)[C@@H](N)CCCCN)NC(=O)[C@@H](N)CCCCN` [Example 7, SPM(Lys)6 Hydrochloride], the IC50 was > 10000 µg/mL.

Same assay, conditions: dog

`NCCCC[C@H](NC(=O)[C@@H](N)CCCCN)C(=O)NCCCN(CCCCN(CCCNC(=O)[C@H](CCCCN)NC(=O)[C@@H](N)CCCCN)C(=O)[C@H](CCCCN)NC(=O)[C@@H](N)CCCCN)C(=O)[C@H](CCCCN)NC(=O)[C@@H](N)CCCCN` [Example 16, SPM(Lys)8 Hydrochloride] and `NCCCC[C@H](NC(=O)[C@@H](N)CCCCN)C(=O)NCCCC[C@H](N)C(=O)NCCCN(CCCCN(CCCNC(=O)[C@@H](N)CCCCNC(=O)[C@H](CCCCN)NC(=O)[C@@H](N)CCCCN)C(=O)[C@@H](N)CCCCNC(=O)[C@H](CCCCN)NC(=O)[C@@H](N)CCCCN)C(=O)[C@@H](N)CCCCNC(=O)[C@H](CCCCN)NC(=O)[C@@H](N)CCCCN` [Example 29, SPM(Lys)12 Hydrochloride] cannot be ordered by IC50 at 1 day: > 10000 µg/mL for the first, > 10000 µg/mL for the second.

`NCCCC[C@H](N)C(=O)NCCCC[C@H](N)C(=O)N(CCCCN(CCCNC(=O)[C@@H](N)CCCCN)C(=O)[C@@H](N)CCCCNC(=O)[C@@H](N)CCCCN)CCCNC(=O)[C@@H](N)CCCCN` [Example 6, SPM(Lys)6 Hydrochloride] and `NCCC[C@H](N)C(=O)NCCC[C@H](N)C(=O)NCCCN(CCCCN(CCCNC(=O)[C@@H](N)CCCNC(=O)[C@@H](N)CCCN)C(=O)[C@@H](N)CCCNC(=O)[C@@H](N)CCCN)C(=O)[C@@H](N)CCCNC(=O)[C@@H](N)CCCN` [Example 14, SPM(Orn)8 Hydrochloride] cannot be ordered by IC50 at 1 day: > 10000 µg/mL for the first, > 10000 µg/mL for the second.

Test system: absorption of phosphorus
Experiment: Evaluation of efficacy as phosphorus absorption inhibitors: serum radioactivity AUC (0-120 min) after oral 32P NaH2PO4 in rats, inhibitory rate
Format: in vivo
Details: rats of SD line, oral dose 50 mg/5 mL/kg, 32P NaH2PO4 given orally 5 min later, serum radioactivity AUC 0-120 min vs control
Method: Seven-week-old male rats of SD line (available from SANKYO Labo-Service Co., Ltd.), as test animals, were kept and acclimatized using the usual feed (Solid CRF-1 available from ORIENTAL Yeast Co., Ltd.) and they were used in the following tests after they were fasted overnight. Each candidate substance (synthesized compound) dissolved in distilled water for injection (Otsuka Pharmaceutical Co., Ltd.) was orally administered in a dose of 100 mg/5 mL/kg or 50 mg/5 mL/kg and after 5 minutes from the administration, 3 mg/3 mL/kg, 1 MBq/kg of an NaH2PO4 solution containing ^32P (available from PerkinElmer Company) was orally administered. Subsequently, the blood was collected with the elapse of time through the caudal vein of the test animal to thus obtain the serum thereof and the radioactivity of 40 μL of the serum was determined using a liquid scintillation counter. The inhibitory rate (%) for each candidate compound was calculated on the basis of the foregoing measured values according to the following equation: […]

Compared with “TETA(OrnOrn)2(PheOrn)2 Hydrochloride [Example 50]”, “TAA(PheOrnOrn)3 Hydrochloride [Example 48]” is lower in “50 mg/kg Inhibition (%)” value: 79% for the first, 74% for the second.

Compared with “TETA[Orn(Orn)2]2(Orn)2 TFA Salt [Example 36]”, “TETA(OrnPheDab)4 Hydrochloride [Example 69]” is higher in “50 mg/kg Inhibition (%)” value: 55% for the first, 67% for the second.

Compared with “TETA(Orn)2[Dab(Dab)2]2 Hydrochloride [Example 59]”, “TETA(D-PheOrn)2(OrnOrn)2 Hydrochloride [Example 46]” is higher in “50 mg/kg Inhibition (%)” value: 57% for the first, 62% for the second.

Compared with “TETA(D-Phe-Orn-Orn)4 Hydrochloride [Example 55]”, TETA[Lys(Dab)2]4 TFA Salt [Example 54] is lower in “50 mg/kg Inhibition (%)” value: 85% for the first, 53% for the second.

Compared with “TAA[3,5-NH2Bz(Orn)2]3 Hydrochloride [Example 72]”, “TETA(PheOrn)2(OrnOrn)2 Hydrochloride [Example 37]” is lower in “50 mg/kg Inhibition (%)” value: 79% for the first, 60% for the second.

First: TETA(PheOrn(3-Ala)4 Hydrochloride [Example 68]
Second: TETA(Orn)2[Orn(Orn)2]2 TFA Salt [Example 34]
The “50 mg/kg Inhibition (%)” value of the first is higher: 73% for the first, 63% for the second.

Compared with “TETA(Phe-αOrnOrn)4 Hydrochloride [Example 49]”, “TETA[Phe-Orn(Orn)2]4 Hydrochloride [Example 51]” is lower in “50 mg/kg Inhibition (%)” value: 74% for the first, 62% for the second.

Going from “TETA(TyrOrn)2(OrnOrn)2 TFA Salt [Example 42]” to “TETA (Trp-Orn-Dab)4 Hydrochloride [Example 56]”, the “50 mg/kg Inhibition (%)” value rises from 59% to 71%.

Going from “TETA(PheOrn)2[Orn(Orn)Orn]2 Hydrochloride [Example 43]” to TETA[Orn(Dab)2]4 TFA Salt [Example 35], the “50 mg/kg Inhibition (%)” value falls from 60% to 58%.

First: TAA[PheDab(Dab)2]3 Hydrochloride [Example 71]
Second: TETA[PheAsp(DETA)]4 Hydrochloride [Example 74]
The “50 mg/kg Inhibition (%)” value of the first is lower: 54% for the first, 79% for the second.

Compared with “TETA[Dab(Dab)2]4 Hydrochloride [Example 53]”, “TAA(TrpOrnDab)3 Hydrochloride [Example 61]” is higher in “50 mg/kg Inhibition (%)” value: 60% for the first, 70% for the second.

First: TETA(LeuOrn)4 Hydrochloride [Example 75]
Second: TETA(PheDab)4 Hydrochloride [Example 63]
The “50 mg/kg Inhibition (%)” value of the first is lower: 55% for the first, 73% for the second.

Compared with “TETA(OrnOrn)2(LeuOrn)2 Hydrochloride [Example 73]”, “TETA(Phe-δOrnOrn)4 Hydrochloride [Example 40]” is higher in “50 mg/kg Inhibition (%)” value: 52% for the first, 76% for the second.

First: TETA(OrnOrn)2(ChaOrn)2 Hydrochloride [Example 58]
Second: TAA[(Benzoyl-4-methylene)DETA]3 Hydrochloride [Example 76]
The “50 mg/kg Inhibition (%)” value of the first is higher: 79% for the first, 78% for the second.

Going from “TETA(OrnOrnOrn)2(ProOrnOrn)2 Hydrochloride [Example 65]” to “TETA(4-NH2Bz)4(Orn)4(Orn)8 Hydrochloride [Example 62]”, the “50 mg/kg Inhibition (%)” value rises from 57% to 66%.

Going from “TEPA(PheOrn)5 Hydrochloride [Example 64]” to “TETA(Phe-δOrnOrn)5 Hydrochloride [Example 45]”, the “50 mg/kg Inhibition (%)” value falls from 87% to 76%.

First: TAA(TrpOrnOrn)3 Hydrochloride [Example 60]
Second: TETA(TrpOrn)2(OrnOrn)2 Hydrochloride [Example 47]
The “50 mg/kg Inhibition (%)” value of the first is lower: 64% for the first, 72% for the second.

Compared with “TETA(ProOrnOrn)2(OrnOrnOrn)2 Hydrochloride [Example 66]”, “TETA(PheOrnDab)4 Hydrochloride [Example 67]” is higher in “50 mg/kg Inhibition (%)” value: 56% for the first, 84% for the second.

Going from “TETA(OrnPheOrn)4 Hydrochloride [Example 70]” to “TETA(PheOrn)4 Hydrochloride [Example 57]”, the “50 mg/kg Inhibition (%)” value rises from 57% to 69%.

With “TETA[Orn(Orn)2]2(Orn)2 Hydrochloride [Example 39]” the “50 mg/kg Inhibition (%)” value was 55) %.
In the case of “TETA[Orn(Dab)2]4 Hydrochloride [Example 41]”, the “50 mg/kg Inhibition (%)” value is reported as 58) %.
With “TETA(TyrOrn)2(OrnOrn)2 Hydrochloride [Example 52]” the “50 mg/kg Inhibition (%)” value was 59) %.
For “TETA(Orn)2[Orn(Orn)2]2 Hydrochloride [Example 38]”, the “50 mg/kg Inhibition (%)” value was 63) %.

Same assay, conditions: rats of SD line, oral dose 100 mg/5 mL/kg, 32P NaH2PO4 given orally 5 min later, serum radioactivity AUC 0-120 min vs control

Compared with `NCCCC[C@H](NC(=O)[C@@H](N)CCCCN)C(=O)NCCCN(CCCCN(CCCNC(=O)[C@H](CCCCN)NC(=O)[C@@H](N)CCCCN)C(=O)[C@H](CCCCN)NC(=O)[C@@H](N)CCCCN)C(=O)[C@H](CCCCN)NC(=O)[C@@H](N)CCCCN` [Example 16, SPM(Lys)8 Hydrochloride], `NCCCC[C@H](N)C(=O)NCCCC[C@H](NC(=O)[C@@H](N)CCCCN)C(=O)NCCCNCCCCNCCCNC(=O)[C@H](CCCCNC(=O)[C@@H](N)CCCCN)NC(=O)[C@@H](N)CCCCN` [Example 7, SPM(Lys)6 Hydrochloride] is lower in “Inhibitory Rate (%) of Phosphorus Absorption” value (shortened to “Inhibitory Rate (%)”): 49% for the first, 24% for the second.

Going from `NCCCC[C@H](NC(=O)[C@@H](N)CCCCN)C(=O)NCCCC[C@H](N)C(=O)NCCCN(CCCCN(CCCNC(=O)[C@@H](N)CCCCNC(=O)[C@H](CCCCN)NC(=O)[C@@H](N)CCCCN)C(=O)[C@@H](N)CCCCNC(=O)[C@H](CCCCN)NC(=O)[C@@H](N)CCCCN)C(=O)[C@@H](N)CCCCNC(=O)[C@H](CCCCN)NC(=O)[C@@H](N)CCCCN` [Example 29, SPM(Lys)12 Hydrochloride] to SPM(Orn)8 Hydrochloride [Example 22], the “Inhibitory Rate (%)” value rises from 55% to 60%.

`NCCCC[C@H](N)C(=O)NCCCC[C@H](N)C(=O)N(CCCCN(CCCNC(=O)[C@@H](N)CCCCN)C(=O)[C@@H](N)CCCCNC(=O)[C@@H](N)CCCCN)CCCNC(=O)[C@@H](N)CCCCN` [Example 6, SPM(Lys)6 Hydrochloride] and SPM(Orn)4 Hydrochloride [Example 9] are the same in “Inhibitory Rate (%)” value: 30% for the first, 30% for the second.

Compared with `NCCC[C@H](N)C(=O)NCCC[C@H](N)C(=O)NCCCN(CCCCN(CCCNC(=O)[C@@H](N)CCCNC(=O)[C@@H](N)CCCN)C(=O)[C@@H](N)CCCNC(=O)[C@@H](N)CCCN)C(=O)[C@@H](N)CCCNC(=O)[C@@H](N)CCCN` [Example 14, SPM(Orn)8 Hydrochloride], “SPM(Arg)2(Lys)2 Hydrochloride [Example 19]” is lower in “Inhibitory Rate (%)” value: 46% for the first, 35% for the second.

Compared with “SPM(Lys)2(Arg)2 Hydrochloride [Example 23]”, SPM(Orn)2 Hydrochloride [Example 17] is lower in “Inhibitory Rate (%)” value: 45% for the first, 30% for the second.

Going from “SPM(Lys)2(Orn)2 Hydrochloride [Example 10]” to SPM(Lys)8 Hydrochloride [Example 11], the “Inhibitory Rate (%)” value rises from 30% to 44%.

First: SPM(Lys)9 Hydrochloride [Example 27]
Second: SPM(Orn)12 Hydrochloride [Example 8]
The “Inhibitory Rate (%)” value of the first is higher: 64% for the first, 63% for the second.
